Our source for the fold induction values is US9505729B2, “Isoxazole analogs as mediators of transcriptional induction of E-cadherin” (Vanderbilt University, priority 2014, dated 2016).

The structures appear in SMILES notation.

In general, fold induction refers to the ratio of treated to control signal.

This test deals with E-cadherin expression in SW620 cells. Put plainly: In-cell Western (ICW) cell-based functional assay of E-cadherin expression in SW620 cells. To be noted: Homo sapiens, SW-620; change in expression level of E-cadherin in response to 10 μM compound, SW620 cells, 24 hours. Here is the method:
SW620 and H520 cells (5×10^4/100 μL) were seeded in a 96-well plate prior to treatment. Cells were treated with 10 μM concentration of synthesized compound in quadruplicate for 24 hours in RPMI 1640 supplemented medium and 100 μg/mL penicillin-streptomycin. The cells were then fixed with 100% methanol for 20 minutes at 4° C. The wells were then washed 2 times with PBS, permeabilized in 2% bovine serum albumin (BSA) and 0.2% TritonX-100 in PBS for 30 minutes at room temperature with gentle agitation, and blocked in LI-COR blocking buffer for 30 minutes at room temperature with gentle agitation. The cells were then incubated with the following primary antibodies: anti-E-Cadherin (1:500) and anti-α-Tubulin (1:1000) diluted in blocking buffer (1:1 dilution in PBS) for 2 hours at room temperature with gentle agitation. The cells were washed 4 times in PBS-T for 5 minutes each, and then incubated with the following secondary antibodies conjugated to a fluorescent entity: IRDye 800-conjugated goat anti-rabbit IgG (1:1000) and IRDye-700-conjugated goat anti-mouse IgG (1:2000) in blocking buffer (1:1 dilution in PBS) with gentle agitation for 1 h at room temperature. The cells were washed 4 times in PBS-T for 5 minutes each followed by a single wash with PBS. All liquid was removed from the wells and the plates were visualized and analyzed on the Odyssey IR imaging system (LI-COR Biosciences).
The assay was further optimized in the following manner. The cells were washed 2 times with PBS, fixed in 100% methanol at room temperature for 15 minutes, and again washed 2 times with PBS. The cells were then incubated with the following primary antibodies: anti-E-Cadherin (1:200) and anti-α-Tubulin (1:2000) diluted in ice cold 2% bovine serum albumin (BSA) and 0.2% TritonX-100 in PBS for 1 hour at room temperature with gentle agitation. The cells were washed 2 times in PBS and then incubated with the following secondary antibodies conjugated to a fluorescent entity: Licor 800-conjugated goat anti-rabbit IgG (1:2000) and IRDye-700-conjugated goat anti-mouse IgG (1:2000) in ice cold 2% BSA and 0.2% TritonX-100 in PBS with gentle agitation for 45 minutes at room temperature. The wells were washed 2 times in PBS, dried, and analyzed as previously mentioned.
N-(3-(Arylamino)alkyl)-5-arylisoxazole-3-carboxamide analogs were synthesized as described above. Changes in expression level of E-cadherin in response to 10 μM compound in SW620 cells was determined in the cell-based functional assay as described above, and the data are shown in Table II. The compound number corresponds to the compound numbers used in Table I.
EC50 of inducement of E-cadherin expression in SW620 cells was determined in the cell-based functional assay as described above, and the data are shown in Table III. The compound number corresponds to the compound numbers used in Table I.
For the compound `N#Cc1ccc(NCCCNC(=O)c2cc(-c3ccccc3)on2)nc1` [Compound 1, N-(3-((5-cyanopyridin-2-yl)amino)propyl)-5-phenylisoxazole-3-carboxamide], the fold induction at 10 µM was found to be 0.63.
The value for `O=C(NCCCNCc1c[nH]c2ccccc12)c1cc(-c2ccccc2)on1` [Compound 2, N-(3-(((1H-indol-3-yl)methyl)amino)propyl)-5-phenylisoxazole-3-carboxamide] was 0.68; that for `O=C(NCCCNCc1cccnc1)c1cc(-c2ccccc2)on1` [Compound 3, 5-phenyl-N-(3-((pyridin-3-ylmethyl)amino)propyl)isoxazole-3-carboxamide] was 0.7.
Turning to `Cc1ncc(CNCCCNC(=O)c2cc(-c3ccccc3)on2)o1` [Compound 4, N-(3-(((2-methyloxazol-5-yl)methyl)amino)propyl)-5-phenylisoxazole-3-carboxamide], the fold induction at 10 µM is 0.71.
The value for `O=C(NCCCNCc1ccccn1)c1cc(-c2ccccc2)on1` [Compound 5, 5-phenyl-N-(3-((pyridin-2-ylmethyl)amino)propyl)isoxazole-3-carboxamide] was 0.71; that for `O=C(NCCCN(Cc1ccccn1)Cc1ccccn1)c1cc(-c2ccccc2)on1` [Compound 6, N-(3-(bis(pyridin-2-ylmethyl)amino)propyl)-5-phenylisoxazole-3-carboxamide] was 0.82; that for `Cc1ncc(CN(CCCNC(=O)c2cc(-c3ccccc3)on2)Cc2cnc(C)o2)o1` [Compound 7, N-(3-(bis((2-methyloxazol-5-yl)methyl)amino)propyl)-5-phenylisoxazole-3-carboxamide] was 0.83.
The value for `O=C(NCCCNCc1ccc(O)c(O)c1)c1cc(-c2ccccc2)on1` [Compound 8, N-(3-((3,4-dihydroxybenzyl)amino)propyl)-5-phenylisoxazole-3-carboxamide] was 0.84; that for `COc1cncc(CNCCCNC(=O)c2cc(-c3ccccc3)on2)c1` [Compound 9, N-(3-(((5-methoxypyridin-3-yl)methyl)amino)propyl)-5-phenylisoxazole-3-carboxamide] was 0.89; that for `O=C(NCCCNCc1c[nH]c2ncccc12)c1cc(-c2ccccc2)on1` [Compound 10, N-(3-(((1H-pyrrolo[2,3-b]pyridin-3-yl)methyl)amino)propyl)-5-phenylisoxazole-3-carboxamide] was 0.91.
Turning to `Cc1cc(CNCCCNC(=O)c2cc(-c3ccccc3)on2)on1` [Compound 11, N-(3-(((3-methylisoxazol-5-yl)methyl)amino)propyl)-5-phenylisoxazole-3-carboxamide], the fold induction at 10 µM amounted to 0.9.
On to `O=C(NCCCNCc1ccc(O)cc1O)c1cc(-c2ccccc2)on1` [Compound 12, N-(3-((2,4-dihydroxybenzyl)amino)propyl)-5-phenylisoxazole-3-carboxamide], for which the fold induction at 10 µM worked out at 0.91.
Take `CC(=O)n1cc(CNCCCNC(=O)c2cc(-c3ccccc3)on2)c2ccccc21` [Compound 13, N-(3-(((1-acetyl-1H-indol-3-yl)methyl)amino)propyl)-5-phenylisoxazole-3-carboxamide]: the fold induction at 10 µM amounted to 0.91.
For `O=C(NCCCNCc1cnoc1)c1cc(-c2ccccc2)on1` [Compound 14, N-(3-((isoxazol-4-ylmethyl)amino)propyl)-5-phenylisoxazole-3-carboxamide] the value was 0.94; for `O=C(NCCCN(Cc1cnoc1)Cc1cnoc1)c1cc(-c2ccccc2)on1` [Compound 15, N-(3-(bis(isoxazol-4-ylmethyl)amino)propyl)-5-phenylisoxazole-3-carboxamide], 0.95.
Turning to `O=C(NCCCNCc1ccccc1O)c1cc(-c2ccccc2)on1` [Compound 16, N-(3-((2-hydroxybenzyl)amino)propyl)-5-phenylisoxazole-3-carboxamide], the fold induction at 10 µM came out at 0.98.
